Experiments:
[1] = target: T1, COX-2 (Homo sapiens, UniProt P35354); assay: Whole cell assay for COX-2 using CHO transfected cell lines (inhibition of PGE2 production); type: cell-based
T1 construct: expressed in transfected cells; host or cells: CHO cells stably transfected with pCDNAIII (CHO[hCOX-2])
T1 sequence (P35354 18-604): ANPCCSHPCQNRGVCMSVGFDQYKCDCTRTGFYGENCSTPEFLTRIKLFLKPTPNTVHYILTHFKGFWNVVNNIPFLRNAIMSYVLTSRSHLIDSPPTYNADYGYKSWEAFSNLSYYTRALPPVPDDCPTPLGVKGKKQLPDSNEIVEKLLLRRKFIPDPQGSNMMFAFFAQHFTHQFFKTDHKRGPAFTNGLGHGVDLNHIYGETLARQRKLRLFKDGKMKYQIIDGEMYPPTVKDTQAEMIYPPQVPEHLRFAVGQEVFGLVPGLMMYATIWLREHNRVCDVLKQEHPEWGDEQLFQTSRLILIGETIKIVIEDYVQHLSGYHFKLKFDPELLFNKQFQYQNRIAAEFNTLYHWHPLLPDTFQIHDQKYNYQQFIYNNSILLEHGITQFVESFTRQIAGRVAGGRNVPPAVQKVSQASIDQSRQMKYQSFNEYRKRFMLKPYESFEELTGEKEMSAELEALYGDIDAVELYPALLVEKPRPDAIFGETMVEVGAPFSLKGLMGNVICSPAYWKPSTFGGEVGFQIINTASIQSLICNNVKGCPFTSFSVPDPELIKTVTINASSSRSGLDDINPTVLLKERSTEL
Protocol: Chinese hamster ovary (CHO) cell lines which have been stably transfected with an eukaryotic expression vector pCDNAIII containing either the human COX-1 or COX-2 cDNA's are used for the assay. These cell lines are referred to as CHO [hCOX-1] and CHO [hCOX-2], respectively. For cyclooxygenase assays, CHO[hCOX-1] cells from suspension cultures and CHO[hCOX-2] cells prepared by trypsinization of adherent cultures are harvested by centrifugation (300 x g, 10 min) and washed once in HBSS containing 15 mM HEPES, pH 7.4, and resuspended in HBSS, 15 mM HEPES, pH 7.4, at a cell concentration of 1.5 x 10^6 cells/ml. […] Cells are then challenged in the presence or absence of drug with the AA/HBSS solution to yield a final concentration of 0.5 µM AA in the CHO[hCOX-1] assay and a final concentration of 10 µM AA in the CHO[hCOX-2] assay. […] Cyclooxygenase activity in the absence of test compounds is determined as the difference in PGE2 levels of cells challenged with arachidonic acid versus the PGE2 levels in cells mock-challenged with ethanol vehicle. Inhibition of PGE2 synthesis by test compounds is calculated as a percentage of the activity in the presence of drug versus the activity in the positive control samples.
In the assay, inhibition is determined by measuring the amount of prostaglandin E2 (PGE2) synthesized in the presence of arachidonic acid, COX-1 or COX-2 and a putative inhibitor. […]

[2] = target: T2, COX-1 (Homo sapiens, UniProt P23219); assay: Whole cell cyclooxygenase assay in U-937 cells (COX-1, inhibition of PGE2 production); type: cell-based
T2 construct: human U-937 cells (which specifically express COX-1); endogenous in cells; host or cells: human U-937 cells
T2 sequence (P23219 24-599): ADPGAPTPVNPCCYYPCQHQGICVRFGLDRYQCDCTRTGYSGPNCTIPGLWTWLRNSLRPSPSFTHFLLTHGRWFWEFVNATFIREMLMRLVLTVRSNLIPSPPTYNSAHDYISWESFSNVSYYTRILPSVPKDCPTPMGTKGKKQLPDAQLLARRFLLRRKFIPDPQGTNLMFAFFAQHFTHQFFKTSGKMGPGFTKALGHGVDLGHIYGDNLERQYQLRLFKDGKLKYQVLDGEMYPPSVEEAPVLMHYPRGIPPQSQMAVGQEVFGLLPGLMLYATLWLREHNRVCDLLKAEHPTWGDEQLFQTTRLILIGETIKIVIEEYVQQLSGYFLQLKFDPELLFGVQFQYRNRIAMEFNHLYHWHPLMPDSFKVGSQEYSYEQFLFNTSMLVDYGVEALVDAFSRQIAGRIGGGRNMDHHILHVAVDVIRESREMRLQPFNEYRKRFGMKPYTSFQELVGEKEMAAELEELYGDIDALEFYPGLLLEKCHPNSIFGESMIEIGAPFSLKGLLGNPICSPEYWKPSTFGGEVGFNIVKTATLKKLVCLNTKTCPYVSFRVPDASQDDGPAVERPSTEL
Protocol: Compounds are tested as inhibitors of cyclooxygenase activity in whole cell cyclooxygenase assays. Both of these assays measure prostaglandin E2 synthesis in response to arachidonic acid, using a radioimmunoassay. Cells used for these assays are human osteosarcoma 143 cells (which specifically express COX-2) and human U-937 cells (which specifically express COX-1). In these assays, 100% activity is defined as the difference between prostaglandin E2 synthesis in the absence and presence of arachidonate.
For cyclooxygenase assays, osteosarcoma cells are cultured in 1 mL of media in 24-well multidishes (Nunclon) until confluent (1-2 x 10^5 cells/well). U-937 cells are grown in spinner flasks and resuspended to a final density of 1.5 x 10^6 cells/mL in 24-well multidishes (Nunclon). Following washing and resuspension of osteosarcoma and U-937 cells in 1 mL of HBSS, 1 µL of a DMSO solution of test compound or DMSO vehicle is added, and samples gently mixed. All assays are performed in triplicate. Samples are then incubated for 5 or 15 minutes at 37C, prior to the addition of arachidonic acid. Arachidonic acid (peroxide-free, Cayman Chemical) is prepared as a 10 mM stock solution in ethanol and further diluted 10-fold in HBSS. An aliquot of 10 µL of this diluted solution is added to the cells to give a final arachidonic acid concentration of 10 µM. Control samples are incubated with ethanol vehicle instead of arachidonic acid. Samples are again gently mixed and incubated for a further 10 min. at 37C. For osteosarcoma cells, reactions are then stopped by the addition of 100 µL of 1N HCl, with mixing and by the rapid removal of the solution from cell monolayers. For U-937 cells, reactions are stopped by the addition of 100 µL of IN HCl, with mixing. Samples are then neutralized by the addition of 100 µL of 1N NaOH and PGE2 levels measured by radioimmunoassay.
In the assay, inhibition is determined by measuring the amount of prostaglandin E2 (PGE2) synthesized in the presence of arachidonic acid, COX-1 or COX-2 and a putative inhibitor.
The results for inhibition of PGE2 production may be seen in Table 7.

SMILES	IC50 [1]	IC50 [2]
CC1(c2ccsc2)C(=O)C(c2ccccc2)=C1c1ccc(S(C)(=O)=O)cc1 (stereo not drawn) [Example 6, 4-Methyl-3-(4-methylsulfonylphenyl)-2-phenyl-4-(3-thienyl)-2-cyclobuten-1-one]	25 nM	2000 nM
C=C1CC(c2ccc(S(C)(=O)=O)cc2)=C1c1ccccc1 [Example 39, 3-Methylene-1-(4-methylsulfonylphenyl)-2-phenyl-1-cyclobutene]		1000 nM
C/C(CO)=C1\CC(c2ccc(S(C)(=O)=O)cc2)=C1c1ccccc1 [Example 42]	22 nM	1500 nM
CC1(C)C(=O)C(c2ccc(S(C)(=O)=O)cc2)=C1c1ccccc1 [Example 30, 4,4-dimethyl-2-(4-methylsulfonylphenyl)-3-phenyl-2-cyclobuten-1-one]		1100 nM

From patent publication EP0889878B1 (Merck Frosst Canada & Co., priority 1996, dated 1997)
